Here are results for six molecules from PMC12333011, “Selective Modulation of Trk Receptors by Cyclo-Organopeptides” (ACS Chemical Neuroscience, 2025).

A word on the EC50: it is the concentration giving half of the maximal effect.

Experiment [1] has as its system HeLa-TrkA cells. To be noted: for activity class in cell survival assay, TrkA: HeLa-TrkA cells, 50 μM compound, with or without 0.2 nM NGF, 48-72 h.
Experimental: (§1) Throughout, compounds were tested at 50 μM in TrkA- and C-expressing cells and 0.4 μM in TrkB-expressing cells. […] Samples were tested for promoting cell survival in the absence of NTs (agonism) or in the presence of suboptimal concentrations of NTs whose loops they were designed to mimic (NT potentiation).
(§2) Cells were seeded at a density of 2000 cells per well. Cells were incubated in complete media for 24
(§3) hours. The media was aspirated, the cells washed twice with Dulbecco’s Phosphate Buffered Saline,
(§4) and the media was replaced with serum-free media to induce apoptosis unless otherwise halted.
(§5) Compound was added to cells (50 μM compound to HeLa-TrkA and NIH3T3-TrkC cells, 0.4 μM for
(§6) HEK293-TrkB) alone (agonism) or in the presence of suboptimal neurotrophin (~25 to 30% survival,
(§7) 0.2 nM NGF, 0.6 nM BDNF, or 0.2 nM NT3 for TrkA, B, or C expressing cells respectively). Cell
(§8) survival was measured via alamarBlue assay after 48-72 hours to determine cell viability. Data was
(§9) normalized to DMSO treatment (0%) and optimal neurotrophin (100%, 2.0 nM NGF, 1.0 nM BDNF,
(§10) 2.0 nM NT-3 for TrkA, B, or C expressing cells, respectively).
HeLa-TrkA cells were treated with 50 μM compound with or without suboptimal (0.2 nM) levels of
NGF and cell survival was analyzed after 48-72 hours by the alamarBlue assay. Data was
normalized to DMSO (0%) and 2.0 nM NGF (100%). Data is represented as the average of 3-6
(§11) points +/- standard deviation from the mean.
(§12) with a serial dilution of the compound in serum free media with or without suboptimal neurotrophin
(§13) and incubated for 48-72 hours, after which an alamarBlue assay was done to determine cell viability.
(§14) Cell viability was normalized to DMSO (0%) and optimal neurotrophin (100%), depending on cell type.
(§15) EC50 was calculated in GraphPad Prism 10.2 using the dose response “[agonist] vs response –
(§16) Variable slope (four parameters)” function. Data is presented as the mean +/- standard deviation of
an experiment with 3-6 replicates.
Experiment [2] deals with dry eye disease (desiccating stress to the eye). To be noted: summarised from published work, ref number not given, cited from earlier work. An excerpt: All of the data for these in vivo assays is now published , and will only be summarized here. […] This negative result is surprising because D3 is a potentiator of NGF in TrkA transfectants.
For experiment [3], the system named is HEK293-TrkB cells. Conditions: for shape of dose-response curve, cell survival: HEK293-TrkB cells with 0.6 nM BDNF (suboptimal), EC50s could not be determined; for activity class in cell survival assay, TrkB: HEK293-TrkB cells, 0.4 μM compound, with or without 0.6 nM BDNF, 48-72 h.
Experimental: as §1
Cell Survival Compound Screen
as §2, §3, §4, §5, §6, §7, §8, §9, §10
Cell Survival of HEK293-TrkB Cells
HEK293-TrkB cells were treated with 0.4 μM compound with or without suboptimal (0.6 nM) levels of
BDNF and cell survival was analyzed after 48-72 hours by the alamarBlue assay. Data was
normalized to DMSO (0%) and 1.0 nM BDNF (100%). Data is represented as the average of 3-6
as §11
Cell Survival Dose Response
The most promising compounds from the screen were selected for each cell line. Cells were treated
as §12, §13, §14, §15, §16
an experiment with 3-6 replicates.
The test system of experiment [4] is NIH3T3-TrkC cells. To be noted: for activity class in cell survival assay, TrkC: NIH3T3-TrkC cells, 50 μM compound, with or without 0.2 nM NT-3, 48-72 h.
Experimental: as §1
Cell Survival Compound Screen
as §2, §3, §4, §5, §6, §7, §8, §9, §10
Cell Survival of NIH3T3-TrkC Cells
NIH3T3-TrkC cells were treated with 50 μM compound with or without suboptimal (0.2 nM) levels of
NT-3 and cell survival was analyzed after 48-72 hours by the alamarBlue assay. Data was
normalized to DMSO (0%) and 2.0 nM NT-3 (100%). Data is represented as the average of 3-6
as §11
Cell Survival Dose Response
as §12, §13, §14, §15, §16
an experiment with 3-6 replicates.

Square brackets hold non-standard residues; d marks the D form.

For `CC[C@H](C)[C@@H]1NC(=O)[C@@H]2C[C@@H](CN2)NC(=O)[C@H](CO)NC(=O)[C@H](CC(N)=O)NC(=O)[C@H](CC(N)=O)NC1=O` [3a(ii)], in experiment [1], the EC50 was 10.2 µM and the “activity class in cell survival assay, TrkA” value (“activity class … TrkA” for short) is recorded as “selective TrkA agonists”. Further, the “activity in the preliminary in vivo screen” value in experiment [2] (murine dry eye disease model) is recorded as “no significant activity”.

“M DSKKR (sidechain bridge or staple) [1b(iii)]”: in experiment [3], the “shape of dose-response curve, cell survival” value is “bell-shaped dose–response curve” and the “activity class in cell survival assay, TrkB” value (from here on “activity class … TrkB”) is reported as “BDNF potentiators”.

For the molecule cyclo([dN]-Lys-Val) [4c(iii)nKV], the “activity class in cell survival assay, TrkC” value in experiment [4] was “selectively modulate cell survival through the TrkC receptors”. In addition, the EC50 in experiment [4] (read-out: EC50, cell survival of TrkC cells with suboptimal NT-3 (unit inferred), NIH3T3-TrkC cells with 0.2 nM NT-3, sigmoidal dose response, 48-72 h, alamarBlue) was 8.7 µM. Also, the “NFκB activation (marker of inflammation)” value in experiment [2] (biochemical experiments in the dry eye studies) is “decreases NFκB activation”. Moreover, the “conjunctival goblet cell densities” value in experiment [2] (murine dry eye disease model, further studies) is “increase conjunctival goblet cell densities”. In addition, the corneal barrier function entry in experiment [2] (murine dry eye disease model) was “increased corneal barrier function”.

Take `CC[C@H](C)[C@@H]1NC(=O)[C@H](CC(=O)O)NC(=O)[C@@H]2C[C@@H](CN2)NC(=O)CNC(=O)[C@H](CCCNC(=N)N)NC1=O` [3c(i)]: the “activity class … TrkA” value in experiment [1] is listed as “agonist of TrkA”. In experiment [3], the EC50 came out at 1 µM; the “activity class … TrkB” value was “potentiator of BDNF and NT-3”. For the same molecule, in experiment [3] (24 h), the “maximum activity, % of the maximum survival imparted by BDNF” value was roughly 53%. For the same molecule, in experiment [4] (24 h), the “maximum activity, % survival compared with that imparted by NT-3” value is reported as roughly 52%. Moreover, the “activity class in cell survival assay, TrkC” value in experiment [4] is “potentiator of BDNF and NT-3”. For the same molecule, the corneal barrier function result in experiment [2] (murine dry eye disease model) is on record as “increased corneal barrier function”.

For `CC[C@H](C)[C@@H]1NC(=O)[C@H](CC(N)=O)NC(=O)[C@H](C(C)C)n2cc(nn2)C[C@@H](C(=O)N[C@@H](CCCCNS(=O)(=O)c2cccc3c(N(C)C)cccc23)C(=O)O)NC(=O)[C@H](Cc2ccccc2)NC(=O)[C@H](C(C)C)NC(=O)[C@H](CO)NC(=O)[C@H](CC(N)=O)NC(=O)[C@H](CC(N)=O)NC1=O` [1a(ii)ext], in experiment [1], the response was half-maximal at 7.1 µM (EC50) and the “activity class … TrkA” value was “selective TrkA agonists”.

With cyclo(DSKK) [3b(iii)], in experiment [3], the “shape of dose-response curve, cell survival” value is on record as “bell-shaped dose–response curve” and the “activity class … TrkB” value is “BDNF potentiators”.
